Laboratory results from ChEMBL document CHEMBL3600379, “Radiosynthesis and preliminary PET evaluation of glycogen synthase kinase 3β (GSK-3β) inhibitors containing [(11)C]methylsulfanyl, [(11)C]methylsulfinyl or [(11)C]methylsulfonyl groups” (Bioorg Med Chem Lett, 2015).

Tests used:
Type in all cases: ADME, organism-based
[1] = test system: Brain; assay: Drug uptake in brain of normal mouse at 15 to 20 MBq, iv measured at 30 mins by PET image analysis; settings: in vivo, 0.5 h
[2] = test system: Brain; assay: Drug uptake in brain of cold water-induced mouse stress model at 15 to 20 MBq, iv measured at 15 mins by PET image analysis; settings: in vivo, 0.25 h
[3] = test system: Brain; assay: Drug uptake in brain of cold water-induced mouse stress model at 15 to 20 MBq, iv measured at 2 mins by PET image analysis; settings: in vivo
[4] = test system: Brain; assay: Drug uptake in brain of normal mouse at 15 to 20 MBq, iv measured at 2 mins by PET image analysis; settings: in vivo
[5] = test system: Brain; assay: Drug uptake in brain of normal mouse at 15 to 20 MBq, iv measured at 15 mins by PET image analysis; settings: in vivo, 0.25 h
[6] = test system: Brain; assay: Drug uptake in brain of cold water-induced mouse stress model at 15 to 20 MBq, iv measured over 60 mins by PET image analysis relative to normal mouse; settings: in vivo, 1 h
[7] = test system: Brain; assay: Drug uptake in brain of cold water-induced mouse stress model at 15 to 20 MBq, iv measured at 30 mins by PET image analysis; settings: in vivo, 0.5 h

Drug uptake [1] | SUV [2] | SUV [3] | SUV [4] | SUV [5] | fold change (FC) [6] | Drug uptake [7] | Structure (SMILES)
Not Active | 0.7 | 1.5 | 1 | 0.3 | 2 | Not Active | Cc1nnc(-c2ccc3occ(-c4ccc(S[11CH3])cc4)c3c2)o1
Not Active | 0.3 | 0.8 | 0.5 | 0.3 |  | Not Active | Cc1nnc(-c2ccc3occ(-c4ccc([S+]([11CH3])[O-])cc4)c3c2)o1 (stereo not given)
Not Active | 0.4 | 1.6 | 0.7 | 0.2 | 2 | Not Active | Cc1nnc(-c2ccc3occ(-c4ccc(S([11CH3])(=O)=O)cc4)c3c2)o1
